Experimental data taken from patent publication US9969696B2, “Compounds as inhibitor of DNA double-strand break repair, methods and applications thereof” (INDIAN INSTITUTE OF SCIENCE, priority 2012, dated 2018).

Legend:
[1] = Solubility (characterisation data)
[2] = tested on: DNA end joining (NHEJ); experiment: NHEJ assay, cell-free extracts prepared from rat testes; format: biochemical; details: cell-free repair system from rat testes; compatible, noncompatible, blunt ends
Method: ATP end-labeled oligomeric DNA substrate (75 bp) containing 4 nt overhangs at 5′ ends (about 2 h at 25° C.). In the case of vehicle control, DMSO is used. […] The reaction products are purified and resolved on about 8% denaturing polyacrylamide gel.
FIG. 2 depicts the NHEJ assay and study of joining efficiency. A. Schematic representation of NHEJ assay and substrates containing DSBs. B. Comparison of the effect of potential Ligase IV inhibitors on DNA end joining. The joined products are indicated. “M” represents [g-32 ? P] ATP end-labeled 50 by ladder. C. Quantification of the joining efficiency. […] “PSLU” is “photostimulated luminescence unit”. […] Products are resolved on 1% agarose gel and visualized. Ethidium bromide is used as a positive control for the intercalation assay.
The reaction products are resolved on 8% denaturing PAGE. “M” represents [γ-^32P]ATP end-labeled 50 by ladder. […] “M” is a 2 log DNA ladder.
A. Western blotting showing presence of Ligase IV/XRCC4 in eluted fractions. W is wash, 1 and 2 are different fractions. […] Concentrations of inhibitors used are indicated. For other details, FIG. 4 legend can be referred. C. […] Radiolabeled oligomeric DNA substrates containing 5′ compatible termini are then added to the reaction along with increasing concentrations of purified Ligase IV/XRCC4 complex (30, 60 and 120 fmol) and products are resolved on a PAGE. F. Bar diagram representing quantification of the complementation experiment performed on 5′-5′ and 5′-3′ noncomplementary ends. In all panels quantification of EJ based on 3 independent experiments is represented as mean±SEM.

Compound | melting point [°C] | Solubility in dimethyl formamide (DMF), dimethyl sulfoxide (DMSO) [1] | Solubility in chloroform (CHCl3) [1] | Solubility in ethanol [1] | Inhibition of end joining (EJ) of various types of DSBs [2]
Oc1nc(S)nc2nc3[nH]c4ccccc4c3nc12 [Compound 8, 2-mercapto-10H-indolo[3,2-g]pteridin-4-ol] | > 320 | soluble | Insoluble | Partially soluble | 
O=[N+]([O-])c1ccc(/C=N/c2nc(S)nc(O)c2/N=C/c2ccc([N+](=O)[O-])cc2)cc1 [Compound 9, (5E,6E)-5,6-bis(4-nitrobenzylideneamino)-2-mercaptopyrimidin-4-ol] |  | soluble | Insoluble | Partially soluble | 
COc1ccc(/C=N/c2nc(S)nc(O)c2/N=C/c2ccc(OC)cc2)cc1 [Compound 10, (5E,6E)-5,6-bis(4-methoxybenzylideneamino)-2-mercaptopyrimidin-4-ol] |  | soluble | Insoluble | Partially soluble | 
COc1cc(/C=N/c2nc(S)nc(O)c2/N=C/c2cc(OC)c(OC)c(OC)c2)cc(OC)c1OC [Compound 11, (5E,6E)-5,6-bis(3,4,5-trimethoxybenzylideneamino)-2-mercaptopyrimidin-4-ol] |  | soluble | Insoluble | Partially soluble | 
[Na+].[O-]c1nc(S)nc(/N=C/c2ccccc2)c1/N=C/c1ccccc1 [Compound 15, Sodium 5,6-bis((E)-benzylideneamino)-2-mercaptopyrimidin-4-olate] |  |  |  |  | inhibits end joining (EJ) irrespective of type and configurations of DSB
Cc1ccc(/C=N/c2nc(S)nc(O)c2/N=C/c2ccc(C)cc2)cc1 [Compound 7, (5E,6E)-5,6-bis(4-methylbenzylideneamino)-2-mercaptopyrimidin-4-ol] | 181 to 183 | soluble | Insoluble | Partially soluble | 
Oc1ccc(/C=N/c2nc(S)nc(O)c2/N=C/c2ccc(O)cc2)cc1 [Compound 12, (5E,6E)-5,6-bis(4-hydroxybenzylideneamino)-2-mercaptopyrimidin-4-ol] |  | soluble | Insoluble | Partially soluble | 
COc1cc(/C=N/c2c(N)nc(S)nc2O)cc(OC)c1OC [Compound 5, (E)-5-(3,4,5-trimethoxybenzylideneamino)-6-amino-2-mercaptopyrimidin-4-ol] | 315 | soluble | Insoluble | Partially soluble | 
Oc1nc(S)nc(/N=C/c2ccc(Cl)cc2)c1/N=C/c1ccc(Cl)cc1 [Compound 6, (5E,6E)-5,6-bis(4-chlorobenzylideneamino)-2-mercaptopyrimidin-4-ol] | 260 to 262 | soluble | Insoluble | Partially soluble | 

More lines, main results first:

melting point [°C] | Solubility in dimethyl formamide (DMF), dimethyl sulfoxide (DMSO) [1] | Solubility in chloroform (CHCl3) [1] | Solubility in ethanol [1] | Compound | Inhibition of end joining (EJ) of various types of DSBs [2]
> 320 | soluble | Insoluble | Partially soluble | Nc1nc(S)nc(O)c1/N=C/c1ccc([N+](=O)[O-])cc1 [Compound 3, (E)-5-(4-nitrobenzylideneamino)-6-amino-2-mercaptopyrimidin-4-ol] | 
> 300 | soluble | Insoluble | Partially soluble | Nc1nc(S)nc(O)c1/N=C/c1ccc(Cl)cc1 [Compound 2, (E)-5-(4-chlorobenzylideneamino)-6-amino-2-mercaptopyrimidin-4-ol] | 
> 320 | soluble | Insoluble | Partially soluble | Nc1nc(S)nc(O)c1/N=C/c1ccc(O)cc1 [Compound 4, (E)-5-(4-hydroxybenzylideneamino)-6-amino-2-mercaptopyrimidin-4-ol] | 
 | soluble | Insoluble | Partially soluble | Cc1ccc(/C=N/c2c(N)nc(S)nc2O)cc1 [Compound 13, (E)-5-(4-methylbenzylideneamino)-6-amino-2-mercaptopyrimidin-4-ol] | 
 | soluble | Insoluble | Partially soluble | COc1ccc(/C=N/c2c(N)nc(S)nc2O)cc1 [Compound 14, (E)-5-(4-methoxybenzylideneamino)-6-amino-2-mercaptopyrimidin-4-ol] | 
